Structures can show the parent of a compound that is named as a salt.
Tested on: Endogenous Huntingtin Protein (HTT)
Experiment: Endogenous Huntingtin Protein Assay (ELISA-based MSD electrochemiluminescence)
Assay type: cell-based
Conditions: Table 1
Experimental: Compounds of Formula (I) were tested using the Meso Scale Discovery (MSD) Assay provided in International Application No. PCT/US2016/066042, filed on Dec. 11, 2016 and claiming priority to U.S. Provisional Application 62/265,652 filed on Dec. 10, 2015, published as International Publication No. WO 2017/100726 on Jun. 15, 2017, the entire contents of which are incorporated herein by reference.
The Endogenous Huntingtin Protein assay used in Example 1 was developed using the ELISA-based MSD electrochemiluminescence assay platform.
Endogenous Huntingtin Protein Assay
Meso Scale Discovery (MSD) 96-well or 384-well plates were coated overnight at 4° C. with MW1 (expanded polyglutamine) or MAB2166 monoclonal antibody (for capture) at a concentration of 1 μg/mL in PBS (30 μL per well). Plates were then washed three times with 300 µL wash buffer (0.05% Tween-20 in PBS) and blocked (100 μL blocking buffer; 5% BSA in PBS) for 4-5 hours at room temperature with rotational shaking and then washed three times with wash buffer.
Samples (25 μL) were transferred to the antibody-coated MSD plate and incubated overnight at 4° C. After removal of the lysates, the plate was washed three times with wash buffer, and 25 μL of #5656S (Cell signaling; rabbit monoclonal) secondary antibody (diluted to 0.25 μg/mL in 0.05% Tween-20 in blocking buffer) was added to each well and incubated with shaking for 1 Hour at room temperature. Following incubation with the secondary antibody, the wells were rinsed with wash buffer after which 25 μL of goat anti-rabbit SULFO TAG secondary detection antibody (required aspect of the MSD system) (diluted to 0.25 μg/mL in 0.05% Tween-20 in blocking buffer) was added to each well and incubated with shaking for 1 hour at room temperature. After rinsing three times with wash buffer, 150 μL of read buffer T with surfactant (MSD) were added to each empty well, and the plate was imaged on a SI 6000 imager (MSD) according to manufacturers' instructions provided for 96- or 384-well plates.

Row | Compound | IC50
1 | Cc1cn2nc(-c3cc(=O)n4cc(N5CCC6C(CCN6CCO)C5)ccc4n3)cc2c(C)n1 (centres unmarked) [compound 624, 2-(4,6-dimethylpyrazolo[1,5-a]pyrazin-2-yl)-7-[1-(2-hydroxyethyl)octahydro-5H-pyrrolo[3,2-c]pyridin-5-yl]-4H-pyrido[1,2-a]pyrimidin-4-one] | 500 to 1000 nM
2 | Cc1cn2nc(-c3cc(=O)n4cc(N5CCN(C)[C@@H](C)C5)ccc4n3)cc2c(C)n1 [compound 258, 7-[(3S)-3,4-dimethylpiperazin-1-yl]-2-(4,6-dimethylpyrazolo[1,5-a]pyrazin-2-yl)-4H-pyrido[1,2-a]pyrimidin-4-one] | 3000 to 33000 nM
3 | CCc1nc(C)cn2nc(-c3cc(=O)n4cc(N5CCCN(C)CC5)ccc4n3)cc12 [compound 636, 2-(4-ethyl-6-methylpyrazolo[1,5-a]pyrazin-2-yl)-7-(4-methyl-1,4-diazepan-1-yl)-4H-pyrido[1,2-a]pyrimidin-4-one] | 3000 to 33000 nM
4 | Cc1cn2cc(-c3cc(=O)n4cc(C5CCN(C(C)C)CC5)ncc4n3)ccc2n1 [compound 627, 2-(2-methylimidazo[1,2-a]pyridin-6-yl)-7-[1-(propan-2-yl)piperidin-4-yl]-4H-pyrazino[1,2-a]pyrimidin-4-one] | 1000 to 3000 nM
5 | CCc1nc(C)cn2nc(-c3cc(=O)n4cc(N(C)C5CC(C)(C)NC(C)(C)C5)cc(C)c4n3)cc12 [compound 851, 2-(4-ethyl-6-methylpyrazolo[1,5-a]pyrazin-2-yl)-9-methyl-7-[methyl(2,2,6,6-tetramethylpiperidin-4-yl)amino]-4H-pyrido[1,2-a]pyrimidin-4-one] | 3000 to 33000 nM
6 | CCc1nc(C)cn2nc(-c3cc(=O)n4cc(C5CCNCC5)ncc4n3)cc12 [compound 653, 2-(4-ethyl-6-methylpyrazolo[1,5-a]pyrazin-2-yl)-7-(piperidin-4-yl)-4H-pyrazino[1,2-a]pyrimidin-4-one] | < 100 nM
7 | CCN1CCC(c2cc(C)c3nc(-c4ccc5nn(C)cc5c4)cc(=O)n3c2)CC1 [compound 719, 7-(1-ethylpiperidin-4-yl)-9-methyl-2-(2-methyl-2H-indazol-5-yl)-4H-pyrido[1,2-a]pyrimidin-4-one] | < 100 nM
8 | O=c1cc(-c2cnc(O)c(F)c2)nc2ccc(N3CCNCC3)cn12 [compound 839, 2-(5-fluoro-6-hydroxypyridin-3-yl)-7-(piperazin-1-yl)-4H-pyrido[1,2-a]pyrimidin-4-one] | 3000 to 33000 nM
9 | Cc1cn2cc(-c3cc(=O)n4cc(N5CCNCC5)ccc4n3)nc2c(C)n1 [compound 118, 2-(6,8-dimethylimidazo[1,2-a]pyrazin-2-yl)-7-(piperazin-1-yl)-4H-pyrido[1,2-a]pyrimidin-4-one] | 3000 to 33000 nM
10 | Cc1cn2cc(-c3cc(=O)n4cc(C5=CCN(C(C)C)CC5)ncc4n3)cc2c(C)n1 [compound 479, 2-(1,3-dimethylpyrrolo[1,2-a]pyrazin-7-yl)-7-[1-(propan-2-yl)-1,2,3,6-tetrahydropyridin-4-yl]-4H-pyrazino[1,2-a]pyrimidin-4-one] | 3000 to 33000 nM
11 | COc1ccc(-c2cc(=O)n3cc(N4CCNCC4)ccc3n2)cc1F [compound 72, 2-(3-fluoro-4-methoxyphenyl)-7-(piperazin-1-yl)-4H-pyrido[1,2-a]pyrimidin-4-one] | 3000 to 33000 nM
12 | O=c1cc(-c2cn[nH]c2)nc2ccc(N3CCNCC3)cn12 [compound 855, 7-(piperazin-1-yl)-2-(1H-pyrazol-4-yl)-4H-pyrido[1,2-a]pyrimidin-4-one hydrochloride (1:1)] | 3000 to 33000 nM
13 | O=c1cc(-c2cncc(Cl)c2)nc2ccc(N3CCNCC3)cn12 [compound 94, 2-(5-chloropyridin-3-yl)-7-(piperazin-1-yl)-4H-pyrido[1,2-a]pyrimidin-4-one] | 3000 to 33000 nM
14 | Cc1nc(-c2cc(=O)n3cc(C4=CCNCC4)ccc3n2)cc2cn(C)nc12 [compound 862, 2-(2,7-dimethyl-2H-pyrazolo[3,4-c]pyridin-5-yl)-7-(1,2,3,6-tetrahydropyridin-4-yl)-4H-pyrido[1,2-a]pyrimidin-4-one hydrochloride (1:2)] | 1000 to 3000 nM
15 | Cc1nc2ccc(-c3cc(=O)n4cc(N5CCNCC5)ccc4n3)cc2o1 [compound 133, 2-(2-methyl-1,3-benzoxazol-6-yl)-7-(piperazin-1-yl)-4H-pyrido[1,2-a]pyrimidin-4-one] | 500 to 1000 nM
16 | CCN1CC=C(c2cc(C)c3nc(-c4cc5c(C)nc(C)cn5n4)cc(=O)n3c2)CC1 [compound 482, 2-(4,6-dimethylpyrazolo[1,5-a]pyrazin-2-yl)-7-(1-ethyl-1,2,3,6-tetrahydropyridin-4-yl)-9-methyl-4H-pyrido[1,2-a]pyrimidin-4-one] | 3000 to 33000 nM
17 | Cc1cn2nc(-c3cc(=O)n4cc(C5=CCN(C6CCC6)CC5)ccc4n3)cc2c(C)n1 [compound 356, 7-(1-cyclobutyl-1,2,3,6-tetrahydropyridin-4-yl)-2-(4,6-dimethylpyrazolo[1,5-a]pyrazin-2-yl)-4H-pyrido[1,2-a]pyrimidin-4-one] | 3000 to 33000 nM

Other lines, results leading:

Row | IC50 | Compound
18 | 3000 to 33000 nM | CCN1CCN(c2cn3c(=O)cc(-c4ccc5nn(C)cc5c4)nc3cn2)CC1 [compound 590, 7-(4-ethylpiperazin-1-yl)-2-(2-methyl-2H-indazol-5-yl)-4H-pyrazino[1,2-a]pyrimidin-4-one]
19 | 3000 to 33000 nM | CCc1nc(C)cn2nc(-c3cc(=O)n4cc(N5C[C@@H](C)N[C@@H](C)C5)ccc4n3)cc12 [compound 633, 7-[(3R,5S)-3,5-dimethylpiperazin-1-yl]-2-(4-ethyl-6-methylpyrazolo[1,5-a]pyrazin-2-yl)-4H-pyrido[1,2-a]pyrimidin-4-one]
20 | 3000 to 33000 nM | Cc1ccc2nc(-c3cc(=O)n4cc(N5CCNCC5)ccc4n3)cn2c1 [compound 29, 2-(6-methylimidazo[1,2-a]pyridin-2-yl)-7-(piperazin-1-yl)-4H-pyrido[1,2-a]pyrimidin-4-one]
21 | < 100 nM | Cc1nc(C2CCNCC2)cn2c(=O)cc(-c3ccc4nn(C)cc4c3)nc12 [compound 796, 9-methyl-2-(2-methyl-2H-indazol-5-yl)-7-(piperidin-4-yl)-4H-pyrazino[1,2-a]pyrimidin-4-one]
22 | 100 to 500 nM | Cc1nc2c(F)cc(-c3cc(=O)n4cc(N5CCNCC5)ccc4n3)cc2o1 [compound 305, 2-(4-fluoro-2-methyl-1,3-benzoxazol-6-yl)-7-(piperazin-1-yl)-4H-pyrido[1,2-a]pyrimidin-4-one]
23 | 3000 to 33000 nM | Cn1cc2cc(-c3cc(=O)n4cc(C5CCNCC5)ccc4n3)ccc2n1 [compound 606, 2-(2-methyl-2H-indazol-5-yl)-7-(piperidin-4-yl)-4H-pyrido[1,2-a]pyrimidin-4-one]
24 | 3000 to 33000 nM | Cc1cn2cc(-c3cc(=O)n4cc(N5CCNCC5)ccc4n3)cc(C3CC3)c2n1 [compound 714, 2-(8-cyclopropyl-2-methylimidazo[1,2-a]pyridin-6-yl)-7-(piperazin-1-yl)-4H-pyrido[1,2-a]pyrimidin-4-one]
25 | 3000 to 33000 nM | C[C@H]1CN(c2ccc3nc(-c4cnn(C)c4)cc(=O)n3c2)CCN1 [compound 191, 7-[(3S)-3-methylpiperazin-1-yl]-2-(1-methyl-1H-pyrazol-4-yl)-4H-pyrido[1,2-a]pyrimidin-4-one]
26 | 100 to 500 nM | Cn1cc2cc(-c3cc(=O)n4cc(C5CCNCC5)ncc4n3)ccc2n1 [compound 566, 2-(2-methyl-2H-indazol-5-yl)-7-(piperidin-4-yl)-4H-pyrazino[1,2-a]pyrimidin-4-one]
27 | < 100 nM | Cc1cn2cc(-c3cc(=O)n4cc(C5CCNCC5)ccc4n3)cc(Cl)c2n1 [compound 516, 2-(8-chloro-2-methylimidazo[1,2-a]pyridin-6-yl)-7-(piperidin-4-yl)-4H-pyrido[1,2-a]pyrimidin-4-one]
28 | 1000 to 3000 nM | Cc1cn2cc(-c3ccc4nc(C5CCN(C)CC5)cc(=O)n4c3)cc(F)c2n1 [compound 462, 7-(8-fluoro-2-methylimidazo[1,2-a]pyridin-6-yl)-2-(1-methylpiperidin-4-yl)-4H-pyrido[1,2-a]pyrimidin-4-one]
29 | 3000 to 33000 nM | Cn1cc2cc(-c3cc(=O)n4cc(N5CCNCC5)ncc4n3)ccc2n1 [compound 586, 2-(2-methyl-2H-indazol-5-yl)-7-(piperazin-1-yl)-4H-pyrazino[1,2-a]pyrimidin-4-one]
30 | 100 to 500 nM | Cc1cn2cc(-c3cc(=O)n4cc(N5CCNCC5)ccc4n3)cc(F)c2n1 [compound 209, 2-(8-fluoro-2-methylimidazo[1,2-a]pyridin-6-yl)-7-(piperazin-1-yl)-4H-pyrido[1,2-a]pyrimidin-4-one]
31 | < 100 nM | CCN1CCC(c2cn3c(=O)cc(-c4ccc5nn(C)cc5c4)nc3c(C)n2)CC1 [compound 864, 7-(1-ethylpiperidin-4-yl)-9-methyl-2-(2-methyl-2H-indazol-5-yl)-4H-pyrazino[1,2-a]pyrimidin-4-one]
32 | 500 to 1000 nM | CCc1nc(C)cn2nc(-c3cc(=O)n4cc(C5CCNCC5)cc(C)c4n3)cc12 [compound 771, 2-(4-ethyl-6-methylpyrazolo[1,5-a]pyrazin-2-yl)-9-methyl-7-(piperidin-4-yl)-4H-pyrido[1,2-a]pyrimidin-4-one]

— patent publication US11382918B2, “Methods for treating Huntington's Disease” (PTC Therapeutics, Inc., priority 2017, dated 2022)
